“Also recorded” adds a separate entry of the source.
Experiments:
VACV WR-Luc virus = type: cell-based
VACV WR A4-YFP = type: cell-based, vaccinia virus
VACV-WR-GFP virus = experiment: microbe, parasite or virus in culture; type: cell-based; settings: Orthopoxvirus vaccinia, HeLa, 24 h; for IC50: read-out: IC50 (50% inhibition of viral spread); for IC90: read-out: IC90 (90% inhibition of viral spread)
in vitro = settings: human
VACV IHDJ virus = type: cell-based, vaccinia virus
VACV WR = type: cell-based, vaccinia virus
luciferase = luciferase (Photinus pyralis, UniProt P08659); type: biochemical
Sequence of luciferase (P08659 whole entry): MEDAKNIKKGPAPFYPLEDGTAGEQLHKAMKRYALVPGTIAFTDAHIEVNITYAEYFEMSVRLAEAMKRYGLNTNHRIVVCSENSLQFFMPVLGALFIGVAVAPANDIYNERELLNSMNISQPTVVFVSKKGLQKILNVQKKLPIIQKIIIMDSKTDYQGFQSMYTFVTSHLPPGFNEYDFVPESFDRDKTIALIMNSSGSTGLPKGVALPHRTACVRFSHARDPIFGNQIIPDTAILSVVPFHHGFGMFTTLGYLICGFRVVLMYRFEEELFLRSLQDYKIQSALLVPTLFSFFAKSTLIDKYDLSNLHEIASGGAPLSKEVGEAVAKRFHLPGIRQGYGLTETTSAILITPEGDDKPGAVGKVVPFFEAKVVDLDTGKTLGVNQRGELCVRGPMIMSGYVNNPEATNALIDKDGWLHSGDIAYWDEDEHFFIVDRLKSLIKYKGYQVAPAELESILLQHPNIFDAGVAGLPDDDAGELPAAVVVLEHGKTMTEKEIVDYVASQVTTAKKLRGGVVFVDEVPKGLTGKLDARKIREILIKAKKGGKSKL

Structure (SMILES)	viral entry (luciferase RLU) (VACV WR-Luc virus)	virus-loaded actin tails per cell (VACV WR A4-YFP)	IC50 (VACV-WR-GFP virus) [nM]	IC90 (VACV-WR-GFP virus) [nM]	CC50 (in vitro) [nM]	luciferase activity (viral entry) (VACV WR-Luc virus)	MV yield / MV formation (VACV IHDJ virus)	viral plaque size, wild-type virus (VACV WR)	luciferase enzyme activity (RLU) (luciferase)
O=C1CN(C(=O)c2nccs2)C(c2cc(Cl)cc(Cl)c2)c2cc(Cl)ccc2N1 (centres unmarked) [PA24]	did not markedly decrease viral entry; also recorded: reduced viral entry	significant decrease in virus-loaded tails	1000	1800	> 400000				
O=C1CN(C(=O)c2nccs2)C(c2cccc(Cl)c2)c2cc(Br)ccc2N1 (centres unmarked) [PA104]	a decrease in viral entry was observed	significant decrease in virus-loaded tails	500	1300	> 400000	observable reduction in luciferase activity	small reduction in MV yield	maximal inhibition of plaque size	does not impact luciferase enzyme activity
CCC(=O)N1CC(=O)Nc2ccc(Br)cc2C1c1ccccc1 (centres unmarked) [Retro 1]			3000	7200	> 400000				
Cc1ccc(/C=N/c2ccccc2C(=O)Nc2ccccc2)s1 [Retro 2]			2200	5500	> 400000				
O=C(NN1C(=O)[C@@H]2[C@@H]3C=C[C@@H]([C@H]4C[C@@H]34)[C@@H]2C1=O)c1ccc(C(F)(F)F)cc1 [ST-246]			40	100	> 400000				
